Data on eleven molecules can be found in ChEMBL document CHEMBL2401682, “Evaluation of Jatropha isabelli natural products and their synthetic analogs as potential antimalarial therapeutic agents” (Eur J Med Chem, 2013).

Converted amounts (≈) assume the structure as drawn.

The subject of data set [1] is HEK293. In words: Cytotoxicity against HEK293 cells after 72 hrs by celltiter-glo assay. The data set is classed as cell-based. The settings on record: Homo sapiens, HEK293, 72 h. (In general: Cellular ATP, detected with luciferase, serves as a proxy for viable cell number.)
The test system of data set [2] is Raji. The data set can be described thus: Cytotoxicity against human Raji cells after 72 hrs by celltiter-glo assay. The data set is classed as cell-based.
Data set [3] concerns Plasmodium falciparum. In words: Antimalarial activity against chloroquine-sensitive Plasmodium falciparum 3D7 infected in O-positive erythrocytes assessed as parasite growth inhibition after 72 hrs by DNA staining-based assay. The data set is classed as functional, organism-based. As to conditions: 3D7, 72 h.
Data set [4] has as its system HepG2. The data set can be described thus: Cytotoxicity against human HepG2 cells after 72 hrs by celltiter-glo assay. The data set is classed as cell-based. The settings on record: HepG2, 72 h.
The subject of data set [5] is Plasmodium falciparum. The data set can be described thus: Antimalarial activity against chloroquine and pyrimethamine-resistant Plasmodium falciparum K1 infected in O-positive erythrocytes assessed as parasite growth inhibition after 72 hrs by DNA staining-based assay. In kind it is functional, organism-based. The settings on record: K1, 72 h.
Data set [6] deals with BJ. In words: Cytotoxicity against human BJ cells after 72 hrs by celltiter-glo assay. In kind it is cell-based.
A short description of data set [7]: Permeability of the compound by PAMPA. In kind it is ADME. As to conditions: read-out: permeability. In general terms: The PAMPA barrier holds no transporters, so it reflects passive diffusion.
The nature of data set [8]: Solubility of the compound. In kind it is physicochemical.
Data set [9] is described as follows: Plasma protein binding in mouse. The data set is classed as ADME, cell-free. As to conditions: read-out: PPB (converted).
A short description of data set [10]: Half life in mouse plasma. The data set is classed as ADME, cell-free.
A short description of data set [11]: Half life in human liver microsomes. The data set is classed as ADME, Microsome. (In general: Liver microsomes are a subcellular fraction often used to study metabolism.)
Data set [12] can be described thus: Half life in mouse liver microsomes. The data set is classed as ADME, Microsome.
Data set [13] in a line: Efflux ratio of permeability in human Caco2 cells. In kind it is ADME, cell-based. The settings on record: Caco-2.
The nature of data set [14]: Plasma protein binding in human. The data set is classed as ADME, cell-free. The settings on record: read-out: PPB (converted).
A short description of data set [15]: Solubility of the compound at pH 3 to 7. In kind it is physicochemical. The settings on record: buffer.
The nature of data set [16]: Half life in human plasma. In kind it is ADME, cell-free.

On to `COC(=O)C1=C2C[C@@H]3CC[C@@H](C)[C@]2(CC1)C3(C)C`, for which the half-maximal effective concentration (EC50) in [1] was found to be 26 µM; in data set [2], 26 µM; in [3], 15 µM; in data set [4], 26 µM; in [5], 15 µM; in data set [6] it was 26 µM.
With `C[C@@H]1CC[C@H]2CC3=C(C=O)CC[C@@]31C2(C)C`, the concentration for a half-maximal effect (EC50) worked out at 26 µM in data set [1]; 26 µM in data set [2]; 15 µM in data set [3]; 26 µM in data set [4]; 15 µM in [5]; 26 µM in data set [6].
Take `C[C@@H]1CC[C@H]2CC3=C(CO)CC[C@@]31C2(C)C`: the half-maximal effective concentration (EC50) in data set [1] is 26 µM; in [2], 26 µM; in data set [3], 15 µM; in data set [4], 26 µM; in data set [5], 15 µM; in data set [6], 26 µM.
For `C[C@@H]1CC[C@H]2CC3C(=O)CC[C@@]31C2(C)C` (some centres not stated), the EC50 is 26 µM in data set [1]; 26 µM in [2]; 15 µM in [3]; 26 µM in [4]; 15 µM in data set [5]; 26 µM in data set [6].
For `CCOC(=O)CNC(=O)[C@H](CS[C@H]1[C@@H]2C(=O)/C(C)=C\C3=C[C@H](C)C[C@@]34O[C@]2(CC1(C)C)[C@@H](C)C4=O)NC(=O)CC[C@H](N)C(=O)O`, the 50% effective concentration (EC50) in data set [1] is 26 µM; in [2] it was 6.09 µM; in data set [3], 15 µM; in [4], 26 µM; in data set [5] it was 15 µM; in data set [6], 12.5 µM.
As for `C[C@@H]1C[C@@]23O[C@@]45CC(C)(C)[C@@H](Sc6ccccc6)[C@@H]4C(=O)C(C)(C=C2[C@H]1Sc1ccccc1)[C@]3(O)[C@@H]5C` (some centres not stated), the EC50 was 26 µM in [1]; 26 µM in data set [2]; 6.45 µM in [3]; 26 µM in data set [4]; 5.57 µM in [5]; 26 µM in [6].
Regarding `CC1=C2CC(C)(C)/C(c3ccc(C(F)(F)F)cc3)=C/C(=O)/C(C)=C\C3=C[C@H](C)C[C@]3(O2)C1=O`, the 50% effective concentration (EC50) in data set [1] was determined as 26 µM; in [2], 26 µM; in [3], 6.08 µM; in [4] it was 26 µM; in data set [5], 5.88 µM; in data set [6], 26 µM. The Papp in [7] is 106 ×10⁻⁶ cm/s. The same molecule displayed a solubility in data set [8] of 17 µg/mL (≈ 37.2 µM).
Turning to `CC1=C2CC(C)(C)CCC(=O)C(C)CC3C[C@H](C)C[C@]3(O2)C1=O` (mixture of isomers), the EC50 in data set [1] was 26 µM; in [2] it was 26 µM; in data set [3], 15 µM; in data set [4], 26 µM; in [5], 15 µM; in data set [6], 26 µM.
On to `CC1=C2CC(C)(C)CCC(=O)C(C)CC3=C[C@H](C)C[C@]3(O2)C1=O` (mixture of isomers), for which the EC50 was 26 µM in data set [1]; 26 µM in data set [2]; 15 µM in data set [3]; 26 µM in data set [4]; 15 µM in data set [5]; 26 µM in data set [6].
Take `CC(=O)O[C@H]1CC[C@]2(C)[C@H]3CC[C@]4(C)C(=CC[C@@]5(C(=O)O)CCC(C)(C)C[C@H]54)[C@]3(C)CC[C@H]2C1(C)C` [ACETYL ALEURITOLIC ACID]: the 50% effective concentration (EC50) in data set [1] was 26 µM; in [2] it was 26 µM; in data set [3], 15 µM; in data set [4], 26 µM; in data set [5], 15 µM; in data set [6], 26 µM.
`CC1=C2CC(C)(C)/C=C/C(=O)/C(C)=C\C3=C[C@H](C)C[C@]3(O2)C1=O` [JATROPHONE]: the fraction unbound in data set [9] and in data set [14] was 0.26 in each case. For the same molecule, the half-life in data set [10] was 12.6 min; in data set [11] it was 6 min; in data set [12] it was 5.4 min; in [16], 7.8 min. Besides, the EC50 in data set [1] amounted to 6.09 µM; in data set [2], 26 µM; in data set [3], 15 µM; in data set [4], 6.09 µM; in data set [5], 5.41 µM; in [6], 1.93 µM. In addition, the efflux ratio in data set [13] came out at 1.5. For the same molecule, the concentration in solution in data set [15] (solubility) came to 20 µg/mL (≈ 64 µM). For the same molecule, the Papp in data set [7] turned out to be 525 ×10⁻⁶ cm/s.

By EC50 is commonly meant the concentration needed to bring the measured effect to its halfway point. The solubility is how much of the substance goes into solution per volume. Read a low solubility as a poorly soluble substance. For orientation: half-life means how long it takes for the measured level to halve. A higher half-life goes with slow decline. As usually defined, the efflux ratio is the permeability from basolateral to apical divided by that in the opposite direction, in the common usage.
